# Reference: US5348941A, “Stabilizers for fibroblast growth factors” (Merck & Co., Inc., priority 1992, dated 1994)
# Experiments:
# [1] = molecular target: T1, aFGF (Homo sapiens, UniProt P05230); assay: Thermal denaturation (Tm) of aFGF by fluorescence spectroscopy; format: biochemical; details: for molar excess of ligand to aFGF required for 50% stabilization: FIG. 9; for Tm maximum of aFGF, fluorescence: saturating ligand, 100 μg/ml aFGF
# T1 construct: The recombinant derived, 140 amino add form is the preferred form of aFGF; N-terminal methionine (MetHaFGF); made in house; host or cells: microbial cells (preferred embodiment)
# T1 sequence (P05230 16-155 limits assumed): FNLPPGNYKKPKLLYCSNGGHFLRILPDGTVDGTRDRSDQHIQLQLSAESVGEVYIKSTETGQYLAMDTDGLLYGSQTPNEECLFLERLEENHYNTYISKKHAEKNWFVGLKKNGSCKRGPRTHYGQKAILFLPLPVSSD
# Experimental: Fluorescence spectra are obtained with a Spex Fluorolog-2 spectrofiuorometer using a 1 mm pathlength cuvette. Band passes from 1-2 nm are employed with sample absorptivities maintained below 0.1 at 280 nm. The temperature is controlled either manually or automatically as described above. Reproducibility of thermal denaturation temperatures (Tm) is ± 2° C.
# To more directly ascertain the effect of heparin on aFGF stability, the temperature-induced denaturation of aFGF as a function of heparin concentration was monitored by fluorescence spectroscopy. Fluorescence spectra were obtained with a Spex Fluorolog-2 spectrofiuorometer using a 1 mm pathlength cuvette. Band passes from 1-2 nm were employed with sample absorptivities maintained below 0.1 at 280 nm. The temperature was controlled either manually or automatically as described above. Reproducibility of thermal denaturation temperatures (Tm) was ±2° C. […] Experiments were carried out at 100 μg/ml protein (6.3 μM) in a PBS buffer at pH 7.2. Curve drawn through data points for clarity only.
# Studies of the stabilization of aFGF by heparin are difficult to interpret because of the inherent heterogeneity of heparin preparations, Lane and Lindahl, Eds. Heparin, Chemical and Biological Properties, Clinical Applications, Edward Arnold, London (1989); Jackson, et al., Physiol. Rev. 71: 481-539 (1991). In order to better understand the polyanionic stabilization of aFGF, a series of well-defined fragments of heparin were examined for their ability to stabilize aFGF against thermal denaturation. These enzymatically prepared and purified fragments varied in size from a disaccharide to a decasaccharide. Each fragment was incubated with aFGF at a 1:1 weight ratio in a PBS buffer. The sample was then stressed by temperature and structural changes in aFGF were monitored by both circular dichroism and fluorescence spectroscopy. […] All samples contained 100 μg/ml aFGF (6.3 μM)in a PBS buffer (pH 7.2) with 100 μg/ml of each heparin fragment.
# Since these fragments of heparin have a well-defined molecular weight, the molar ratio of aFGF to ligand during these thermal denaturation experiments can be calculated. The Tm of aFGF as a function of the molar concentration of the hexasaccharide was measured by fluorescence spectroscopy. Fluorescence spectra were obtained with a Spex Fluorolog-2 spectrofiuorometer using a 1mm pathlength cuvette. Band passes from 1-2 nm were employed with sample absorptivities maintained below 0.1 at 280 nm. The temperature was controlled either manually or automatically as described above. Reproducibility of thermal denaturation temperatures (Tm) was ±2° C.
# Analogous to the heparin experiments illustrated in Example 1 (FIG. 3), aFGF thermal stability was monitored by fluorescence spectroscopy as a function of concentration for several other of the polyanions. […] All samples contained 100 μg/ml of aFGF (6.3 μM) in a PBS buffer at pH 7.2.
# [2] = system: genetically diabetic C57GBL/Ks- db+/db^+ female mice; assay: In vivo wound healing model (single 2 cm^2 full thickness wound); set-up: species or system mouse; details: with aFGF
# Source text: The in vivo animal wound healing model employs genetically diabetic c57GBL/Ks- db+/db+ female mice. The assay follows that described by Marsella et al., Wounds: A Compendium of Clinical Research and Practice, 2, (4) July/August 1990, p. 135-147, except that a single 2 cm^2 full thickness wound is used instead of the two 6 mm biopsy wounds described by Marsella. Another difference is that the wounds are covered with a polyurethane dressing. Addic FGF is applied to wounds on days 0, 3 and 7. Matching placebo formulations are used in a second group of animals. Dressings are changed every three to four days, at which time wound perimeters are traced for assessment of healing. Comparison of healing rate va. a placebo control is made and evaluated for statistical significance at the 90% healed stage.
# Human aFGF as described above was combined with various stabilizers to evaluate wound healing activity of the stabilized aFGF. The in vivo animal wound healing model employs genetically diabetic C57GBL/Ks- db+/db^+ female mice (Jackson Laboratory). The assay follows that described by Marsella et. al., Wounds: A Compendium of Clinical Research and Practice, 2, (4) July/August 1990, p. […] Comparison of healing rate vs. a placebo control is made and evaluated for statistical significance at the 90% healed stage. […]
# [3] = system: BALB/c 3T3 A31 fibroblasts; assay: Fibroblast mitogenic assay ([3H]-thymidine incorporation into DNA); format: cell-based; details: presence of heparin
# [4] = system: plasma; assay: Anticoagulant activity: clotting time (PT / aPTT assay) relative to heparin; format: biochemical; details: equal weight of heparin, no aFGF present
# Experimental: Clotting times are monitored by either a one-stage plasma prothrombin time assay (PT assay) or an activated partial thromboplastin time assay (aPTT) using an automated optical detection system (coag-a-Mate®-XC) by General Diagnostics. Clotting times are measured in the presence of varying amounts of heparin (0-50 μg heparin/ml plasma) to generate a standard curve and dotting times of other compounds (at equal wt. amounts) are obtained relative to these standardized values.
# ^(c) Anticoagulant activity is expressed as a fraction of activity
# observed with an equal weight of heparin (+ less than 1/10; ++ 1/10 to
# 1/2; +++ heparin). No aFGF is present during these measurements.
# The anticoagulant properties of heparin are well established, so it was of interest to determine the relative anticoagulant properties of the ligands of this study. The anticoagulant effect of these molecules was measured using a dotting time assay (see methods). Clotting times were monitored by either a one-stage plasma prothrombin time assay (PT assay) or an activated partial thromboplastin time assay (aPTT) using an automated optical detection system (coag-a-Mate*-XC) by General Diagnostics. […]
"thermal melting temperature (Tm) of aFGF, fluorescence ([1]; 1/3X ligand by weight, PBS pH 7.2)","thermal melting temperature (Tm) of aFGF, fluorescence ([1]; 3X ligand by weight, PBS pH 7.2)","concentration of heparin necessary to obtain one-half the Tm maximum ([1]; fluorescence, PBS pH 7.2)",Anticoagulant Activity of Ligand (% Heparin by Wt) [4],Compound,molar excess of ligand to aFGF required for 50% stabilization ([1]; fluorescence),"Tm maximum of aFGF, fluorescence ([1]; PBS pH 7.2)",wound healing efficacy [2],mitogenic activity of aFGF [3]
,,,,"O=P(O)(O)O[C@H]1[C@H](OP(=O)(O)O)[C@@H](OP(=O)(O)O)[C@H](OP(=O)(O)O)[C@@H](OP(=O)(O)O)[C@H]1OP(=O)(O)O [Inositol hexaphosphate, inositol hexaphosphate]",~2,60 °C,,
,,,,"O=S(=O)(O)OC1C(OS(=O)(=O)O)C(OS(=O)(=O)O)C(OS(=O)(=O)O)C(OS(=O)(=O)O)C1OS(=O)(=O)O (stereo not shown) [Inositol hexasulfate, inositol hexasulfate]",~3.5,53 °C,as efficacious as heparin in stimulating,
,,,,O=P(O)(O)OP(=O)(O)OP(=O)(O)OP(=O)(O)O [Tetrapolyphosphate],approximately 6,50 °C,,showed activity when assayed in the presence of heparin
59 °C,61 °C,0.1 X (by weight),+ ++,heparin [reference compound],,61 °C,,
,,,,sulfated β-cyclodextrin,~1.5,56 °C,as efficacious as heparin in stimulating,
